# What was measured:
# tumour LS 174 T = test: laser-induced fluorescence imaging of tumour-bearing mouse; type: in vivo, mouse (Swiss Nude)
# From the text: 2-[7-[1,3-dihydro-3,3-dimethyl-5-(methoxycarbonyl)-1-(4-sulfobutyl)-2H-indol-2-yliden]-1,3,5-heptatrienyl]-3,3 -dimethyl-5-(methoxycarbonyl)-1-(4-sulfobutyl)-3H-indolium, sodium salt at a dose of 3.8 μmol/kg body weight was applied intravenously to an anaesthetized, tumour-bearing mouse (Swiss Nude; tumour LS 174 T at the right hindleg).
# The laser-induced fluorescent images were taken prior to, and at various points in time after, applying the substance with a fluorescence imager (at Physikalisch-Technische Bundesanstalt, Berlin Charlottenburg). Radiation was excited using monochromatic laser light at 740 nm by decoupling the radiation via a fibre optical waveguide system. Exciting radiation below 740 nm was removed using a cutoff filter. The laser-induced fluorescence light above 740 nm was recorded using a CCD camera (Charge Coupled Device), and data was stored in the form of black-and-white images.
# albumin = albumin (Homo sapiens, UniProt P02768); conditions: cited from earlier work
# Sequence of albumin (P02768 25-609, species assumed): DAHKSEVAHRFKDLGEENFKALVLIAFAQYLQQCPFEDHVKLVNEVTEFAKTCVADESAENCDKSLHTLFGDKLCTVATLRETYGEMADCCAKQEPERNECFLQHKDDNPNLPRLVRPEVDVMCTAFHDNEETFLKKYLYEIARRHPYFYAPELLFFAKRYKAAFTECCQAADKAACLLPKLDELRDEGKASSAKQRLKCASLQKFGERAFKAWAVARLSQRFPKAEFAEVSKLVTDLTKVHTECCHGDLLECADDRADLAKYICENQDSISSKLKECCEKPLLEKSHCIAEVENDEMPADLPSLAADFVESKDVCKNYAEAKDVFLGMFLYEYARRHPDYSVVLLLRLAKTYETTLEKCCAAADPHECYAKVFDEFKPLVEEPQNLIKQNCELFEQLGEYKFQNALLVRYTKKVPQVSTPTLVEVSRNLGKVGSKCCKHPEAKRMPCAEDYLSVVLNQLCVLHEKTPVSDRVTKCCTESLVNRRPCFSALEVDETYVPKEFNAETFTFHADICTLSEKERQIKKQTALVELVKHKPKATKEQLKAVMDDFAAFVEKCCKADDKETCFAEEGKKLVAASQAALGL
# [1] = cited from earlier work
# [2] = in vivo; cited from earlier work
SMILES,"fluorescent intensity distribution (tumour LS 174 T; 30 seconds after i.v. 3.8 μmol/kg body weight, excitation 740 nm)",fluorescent intensity in the tumour as compared with the rest of the body (tumour LS 174 T; 18 hours after i.v. 3.8 μmol/kg body weight),distribution of the substance in the animal (tumour LS 174 T; up to 1 h after i.v. 3.8 μmol/kg body weight),binding to albumin (albumin),stability when dissolved ([1]; dissolved),applicability in saline media ([1]; saline media),LD50 [2]
"COC(=O)c1ccc2c(c1)C(C)(C)C(=CC=CC=CC=CC1=[N+](CCCCS(=O)(=O)O)c3ccc(C(=O)OC)cc3C1(C)C)N2CCCCS(=O)(=O)O.[Na+] [Example 8, 2-[7-[1,3-dihydro-3,3-dimethyl-5-(methoxycarbonyl)-1-(4-sulfobutyl)-2H-indol-2-yliden]-1,3,5-heptatrienyl]-3,3-dimethyl-5-(methoxycarbonyl)-1-(4-sulfobutyl)-3H-indolium, sodium salt]",values being increased in the hepatic and pulmonary regions and in the tumour,clearly increased fluorescent intensity,spreads more and more throughout the animal,,,,
CC1(C)C(/C=C/C=C/C=C/C=C2\N(CCCCS(=O)(=O)O)c3ccc4ccccc4c3C2(C)C)=[N+](CCCCS(=O)(=O)[O-])c2ccc3ccccc3c21 [Indocyanine green],,,,up to 100%,unstable when dissolved,precipitation will occur,0.84 mmol/kg
